According to ChEMBL document CHEMBL2203181, “Microwave-assisted synthesis, molecular docking and antitubercular activity of 1,2,3,4-tetrahydropyrimidine-5-carbonitrile derivatives” (2012):

How the values were obtained:
Assay type in all cases: functional
Parameters in all cases: scale not given: the % may be the effect or the level left
[1] = system: Mycobacterium tuberculosis; assay: Antitubercular activity against Mycobacterium tuberculosis H37Rv assessed as reduction in RLU at 0.5 ug/mL after 72 hrs by luciferase reporter phage assay
[2] = system: Mycobacterium tuberculosis; assay: Antitubercular activity against Mycobacterium tuberculosis H37Rv assessed as reduction in RLU at 2 ug/mL after 72 hrs by luciferase reporter phage assay
[3] = system: Mycobacterium tuberculosis; assay: Antitubercular activity against Mycobacterium tuberculosis H37Rv assessed as reduction in RLU at 500 ug/mL after 72 hrs by luciferase reporter phage assay
[4] = system: Mycobacterium tuberculosis; assay: Antitubercular activity against Mycobacterium tuberculosis H37Rv assessed as reduction in RLU at 100 ug/mL after 72 hrs by luciferase reporter phage assay

Structure (SMILES) | Activity [1] [%] | Activity [2] [%] | Activity [3] [%] | Activity [4] [%]
NNC(=O)c1ccncc1 [ISONIAZID] | 98.42 | – | – | –
CO[C@H]1/C=C/O[C@@]2(C)Oc3c(C)c(O)c4c(O)c(c(/C=N/N5CCN(C)CC5)c(O)c4c3C2=O)NC(=O)/C(C)=C\C=C\[C@H](C)[C@H](O)[C@@H](C)[C@@H](O)[C@@H](C)[C@H](OC(C)=O)[C@@H]1C [RIFAMPIN] | – | 82.58 | – | –
COc1ccc(-c2[nH]c(=O)[nH]c(=O)c2C#N)cc1O | – | – | 48.72 | 33.4
N#Cc1c(-c2cccc(Cl)c2)[nH]c(=O)[nH]c1=O | – | – | 61.02 | 54.28
N#Cc1c(-c2ccc(Cl)cc2)[nH]c(=S)[nH]c1=O | – | – | 65.23 | 46.21
N#Cc1c(-c2ccc(Br)cc2)[nH]c(=S)[nH]c1=O | – | – | 82.04 | 75.73
N#Cc1c(-c2ccc(F)cc2)[nH]c(=O)[nH]c1=O | – | – | 44.2 | 46.49
